For four compounds, TD50 and carcinogen call results are on record in PubChem BioAssay AID1745844 (Carcinogenic Potency Database (CPDB), 2022).

Where “and” joins values, the source holds several entries; their conditions need not be identical. Equal values may be shown once. Calls of active or inactive are those of the source. The rule behind the calls is not given here.

In the data set the test system is rodent lifetime carcinogenesis bioassay, tumor incidence TD50. Put plainly: carcinogenic potency in animals, long-term in vivo studies, CPDB compilation (AID 1745844).

`CCn1c2ccccc2c2cc(N)ccc21`: the TD50 by setting is: (mouse, strain B6C3F1, females, in feed, site: any site (literature study), lesion: several types, types named in the paper, dosed 78 weeks, study length 95 weeks) 41.8 mg/kg/day; (mouse, strain B6C3F1, females, in feed, site: liver, lesion: hepatocellular adenoma + hepatocellular carcinoma + neoplastic nodule, dosed 78 weeks, study length 95 weeks) 33 mg/kg/day; (mouse, strain B6C3F1, females, in feed, site: liver, lesion: hepatocellular carcinoma, dosed 78 weeks, study length 95 weeks) 33 mg/kg/day; (mouse, strain B6C3F1, females, in feed, site: lung, lesion: alveolar/bronchiolar adenoma + alveolar/bronchiolar carcinoma, dosed 78 weeks, study length 95 weeks) 1780 mg/kg/day; (mouse, strain B6C3F1, males, in feed, site: any site (literature study), lesion: several types, types named in the paper, dosed 78 weeks, study length 95 weeks) 70.6 mg/kg/day; (mouse, strain B6C3F1, males, in feed, site: liver, lesion: hepatocellular adenoma + hepatocellular carcinoma + neoplastic nodule, dosed 78 weeks, study length 95 weeks) 49.8 mg/kg/day. Also, the TD50 reads like this: (mouse, strain B6C3F1, males, in feed, site: liver, lesion: hepatocellular adenoma + hepatocellular carcinoma, dosed 78 weeks, study length 95 weeks) 49.8 mg/kg/day; (mouse, strain B6C3F1, males, in feed, site: liver, lesion: hepatocellular carcinoma, dosed 78 weeks, study length 95 weeks) 46.4 mg/kg/day; (rat, strain Fischer 344, females, in feed, site: Zymbal's gland, lesion: carcinoma, NOS + squamous-cell carcinoma, dosed 78 weeks, study length 107 weeks) 151 mg/kg/day; (rat, strain Fischer 344, females, in feed, site: Zymbal's gland, lesion: squamous-cell carcinoma, dosed 78 weeks, study length 107 weeks) 212 mg/kg/day; (rat, strain Fischer 344, females, in feed, site: any site (literature study), lesion: several types, types named in the paper, dosed 78 weeks, study length 107 weeks) 44.7 mg/kg/day; (rat, strain Fischer 344, females, in feed, site: liver + uterus + Zymbal's gland, lesion: hepatocellular carcinoma + neoplastic nodule + adenocarcinoma, NOS + carcinoma, NOS + squamous-cell carcinoma, dosed 78 weeks, study length 107 weeks) 55.1 mg/kg/day. For the same compound, the TD50 runs as follows: (rat, strain Fischer 344, females, in feed, site: liver, lesion: hepatocellular adenoma + hepatocellular carcinoma + neoplastic nodule, dosed 78 weeks, study length 107 weeks) 237 mg/kg/day; (rat, strain Fischer 344, females, in feed, site: liver, lesion: hepatocellular carcinoma + neoplastic nodule, dosed 78 weeks, study length 107 weeks) 237 mg/kg/day; (rat, strain Fischer 344, females, in feed, site: uterus, lesion: adenocarcinoma, NOS, dosed 78 weeks, study length 107 weeks) 106 mg/kg/day; (rat, strain Fischer 344, males, in feed, site: Zymbal's gland, lesion: carcinoma, NOS + squamous-cell carcinoma, dosed 78 weeks, study length 106 weeks) 240 mg/kg/day; (rat, strain Fischer 344, males, in feed, site: any site (literature study), lesion: several types, types named in the paper, dosed 78 weeks, study length 106 weeks) 42.7 mg/kg/day; (rat, strain Fischer 344, males, in feed, site: liver + skin + subcutaneous tissue + Zymbal's gland, lesion: hepatocellular carcinoma + neoplastic nodule + basal-cell carcinoma + squamous-cell carcinoma + squamous-cell papilloma + carcinom, dosed 78 weeks, study length 106 weeks) 28.1 mg/kg/day. In addition, the TD50 was 39.2 mg/kg/day (rat, strain Fischer 344, males, in feed, site: liver, lesion: hepatocellular adenoma + hepatocellular carcinoma + neoplastic nodule, dosed 78 weeks, study length 106 weeks); 39.2 mg/kg/day (rat, strain Fischer 344, males, in feed, site: liver, lesion: hepatocellular carcinoma + neoplastic nodule, dosed 78 weeks, study length 106 weeks); 156 mg/kg/day (rat, strain Fischer 344, males, in feed, site: liver, lesion: hepatocellular carcinoma, dosed 78 weeks, study length 106 weeks); 203 mg/kg/day (rat, strain Fischer 344, males, in feed, site: skin + subcutaneous tissue, lesion: basal-cell carcinoma + squamous-cell carcinoma + squamous-cell papilloma, dosed 78 weeks, study length 106 weeks); 257 mg/kg/day (rat, strain Fischer 344, males, in feed, site: skin + subcutaneous tissue, lesion: squamous-cell carcinoma + squamous-cell papilloma, dosed 78 weeks, study length 106 weeks).

In the case of `CC1CN(N=O)CC(C)O1` (stereo not drawn), the TD50 was 1.55 mg/kg/day (hamster, strain Syrian Golden, females, by gavage, site: any site (literature study), lesion: several types, types named in the paper, dosed 59 weeks, study length 83 weeks); 9.45 mg/kg/day (hamster, strain Syrian Golden, females, by gavage, site: forestomach, lesion: several types, types named in the paper, dosed 59 weeks, study length 83 weeks); 12.9 mg/kg/day (hamster, strain Syrian Golden, females, by gavage, site: gall bladder, lesion: several types, types named in the paper, dosed 59 weeks, study length 83 weeks); 11 mg/kg/day (hamster, strain Syrian Golden, females, by gavage, site: liver, lesion: several types, types named in the paper, dosed 59 weeks, study length 83 weeks); 34.6 mg/kg/day (hamster, strain Syrian Golden, females, by gavage, site: lung, lesion: several types, types named in the paper, dosed 59 weeks, study length 83 weeks); 5.75 mg/kg/day (hamster, strain Syrian Golden, females, by gavage, site: pancreas, lesion: several types, types named in the paper, dosed 59 weeks, study length 83 weeks). The TD50 reads like this: (hamster, strain Syrian Golden, females, by gavage, site: pancreatic duct, lesion: adenoma, dosed 59 weeks, study length 83 weeks) 6.99 mg/kg/day; (hamster, strain Syrian Golden, females, by gavage, site: pancreatic duct, lesion: carcinoma, dosed 59 weeks, study length 83 weeks) 32.1 mg/kg/day; (hamster, strain Syrian Golden, females, by gavage, site: several sites, sites named in the paper, lesion: several types, types named in the paper, dosed 59 weeks, study length 83 weeks) 9.17 mg/kg/day and 16.9 mg/kg/day; (hamster, strain Syrian Golden, females, by gavage, site: trachea, lesion: papillary polyp, dosed 59 weeks, study length 83 weeks) 6.4 mg/kg/day; (hamster, strain Syrian Golden, males, by gavage, site: any site (literature study), lesion: several types, types named in the paper, dosed 66 weeks, study length 87 weeks) 1.68 mg/kg/day; (hamster, strain Syrian Golden, males, by gavage, site: forestomach, lesion: several types, types named in the paper, dosed 66 weeks, study length 87 weeks) 2.91 mg/kg/day. Moreover, the TD50 (hamster, strain Syrian Golden, males, by gavage, site: larynx, lesion: squamous-cell papilloma, dosed 66 weeks, study length 87 weeks) was 27.3 mg/kg/day; the TD50 (hamster, strain Syrian Golden, males, by gavage, site: liver, lesion: several types, types named in the paper, dosed 66 weeks, study length 87 weeks) amounted to 10.1 mg/kg/day; the TD50 (hamster, strain Syrian Golden, males, by gavage, site: lung, lesion: several types, types named in the paper, dosed 66 weeks, study length 87 weeks) is 1.21 mg/kg/day; the TD50 (hamster, strain Syrian Golden, males, by gavage, site: pancreas, lesion: several types, types named in the paper, dosed 66 weeks, study length 87 weeks) was 2.78 mg/kg/day; the TD50 (hamster, strain Syrian Golden, males, by gavage, site: pancreatic duct, lesion: adenoma, dosed 66 weeks, study length 87 weeks) came out at 21.2 mg/kg/day; the TD50 (hamster, strain Syrian Golden, males, by gavage, site: pancreatic duct, lesion: carcinoma, dosed 66 weeks, study length 87 weeks) was 6.67 mg/kg/day. Further, the TD50 (hamster, strain Syrian Golden, males, by gavage, site: trachea, lesion: papillary polyp, dosed 66 weeks, study length 87 weeks) is 10.5 mg/kg/day. The carcinogen call (hamster, strain Syrian Golden, females, by gavage, site: larynx, lesion: squamous-cell papilloma, dosed 59 weeks, study length 83 weeks) was “positive”.

As to `NNC=O`, the TD50 was 6860 mg/kg/day (mouse, strain Swiss albino, females, in drinking water, site: liver, lesion: several types, types named in the paper, dosed 83 weeks, study length 83 weeks); 36 mg/kg/day (mouse, strain Swiss albino, females, in drinking water, site: lung, lesion: several types, types named in the paper, dosed 83 weeks, study length 83 weeks); 1150 mg/kg/day (mouse, strain Swiss albino, males, in drinking water, site: liver, lesion: several types, types named in the paper, dosed 83 weeks, study length 83 weeks). In addition, the carcinogen call (mouse, strain Swiss albino, males, in drinking water, site: lung, lesion: several types, types named in the paper, dosed 83 weeks, study length 83 weeks) was “positive”.

`CC(=O)N(O)c1ccc(-c2ccccc2)cc1`: the carcinogen call (rat, strain Not specified, females, in feed, site: liver, lesion: one or several types, types not named, dosed 43 weeks, study length 65 weeks) is “negative (inactive)”.
